Literature values, collected in patent US20140005116A1, “KELOID TREATMENT” (ADE THERAPEUTICS INC., priority 2010, published 2014).
Peptide text beside a SMILES is read from it.

Details: heat sterilization and prolonged storage

SMILES | stability during sterilization and prolonged storage
NCC(=O)N[C@@H](CCC(N)=O)C(=O)O [Glycyl-glutamine] (H-Gly-Gln-OH) | sufficiently stable
C[C@H](N)C(=O)N[C@@H](CCC(N)=O)C(=O)O [alanyl-glutamine, L-alanyl-L-glutamine] (H-Ala-Gln-OH) | sufficiently stable
